Experimental data reported in patent US10588316B2 (priority 2015, dated 2020).
Several values for one entry are separate records, joined by “and”; a condition that tells them apart may be missing. Equal entries are not always repeated.

Tests used:
Parameters in all cases: species or system wheat
Conditions in all cases: in vivo
[1] = system: DON toxin
[2] = system: DON toxin; remark: listed apart in the source
[3] = system: DON toxin; remark: listed apart in the source
[4] = system: DON toxin; remark: listed apart in the source
[5] = system: toxin synthesis capability of thalli
[6] = system: DON toxin; remark: listed apart in the source

Row | Molecule | Grain Toxin Content mg of DON/kg of grain [1] | Toxin Reduction Percentage % [1] | DON Reduction Percentage [2] [%] | Grain Toxin Content (mg of DON/Kg of grain) [3] | Rate of Decrease in Toxin Content in Grains (%) [3] [%] | toxin contamination level of grains [4] | DON Synthesis Capability [5] | Grain Toxin Content [6]
1 | COC(=O)Nc1nc2ccccc2[nH]1 [Carbendazim, carbendazim] | 2.95 mg of DON/kg of grain | 34.73% | 55.00 | 4.35 | 32.7 | 4.4 mg/kg of grains | 28.94 | 
2 | OCC1=CC(N[C@H]2C[C@H](CO)[C@@H](OC3O[C@H](CO)[C@@H](O)[C@H](O)[C@H]3O)C(O)[C@H]2O)[C@H](O)[C@@H](O)C1O (stereo partly shown) [Jinggangmycin, jinggangmycin A] | 2.86 mg of DON/kg of grain and 3.82 mg of DON/kg of grain and 4.02 mg of DON/kg of grain and 4.14 mg of DON/kg of grain |  |  |  |  |  |  | 2.89 μg/g of kernels and 3.24 μg/g of kernels and 3.86 μg/g of kernels and 4.2 μg/g of kernels and 4.77 μg/g of kernels
3 | Tebuconazole | 1.89 mg of DON/kg of grain and 2.14 mg of DON/kg of grain and 2.4 mg of DON/kg of grain and 2.8 mg of DON/kg of grain | 58.19% and 52.65% and 46.90% and 38.05% |  |  |  |  | 19.88 and 18.35 and 18.95 and 19.02 and 19.41 | 4.02 μg/g of kernels and 3.29 μg/g of kernels and 2.14 μg/g of kernels and 2.08 μg/g of kernels
